Results published in patent US20220298163A1, “BTK INHIBITORS WITH IMPROVED DUAL SELECTIVITY” (BEIGENE, LTD., priority 2017, published 2022).

Key:
[1] = target: T1, phosphorylated Btk at Tyr223 (Homo sapiens, UniProt Q06187); experiment: Btk pY223 cellular assay (HTRF, Ramos cells); type: cell-based; conditions: compound 3 hours, pervanadate or Na3VO4 stimulation, read-out: IC50 (nM) in cell Btk pY223
T1 construct: determine the endogenous levels of phosphorylated Btk at Tyr223; endogenous in cells; host or cells: Ramos cells (CRL-1596, ATCC)
T1 sequence (Q06187 whole entry): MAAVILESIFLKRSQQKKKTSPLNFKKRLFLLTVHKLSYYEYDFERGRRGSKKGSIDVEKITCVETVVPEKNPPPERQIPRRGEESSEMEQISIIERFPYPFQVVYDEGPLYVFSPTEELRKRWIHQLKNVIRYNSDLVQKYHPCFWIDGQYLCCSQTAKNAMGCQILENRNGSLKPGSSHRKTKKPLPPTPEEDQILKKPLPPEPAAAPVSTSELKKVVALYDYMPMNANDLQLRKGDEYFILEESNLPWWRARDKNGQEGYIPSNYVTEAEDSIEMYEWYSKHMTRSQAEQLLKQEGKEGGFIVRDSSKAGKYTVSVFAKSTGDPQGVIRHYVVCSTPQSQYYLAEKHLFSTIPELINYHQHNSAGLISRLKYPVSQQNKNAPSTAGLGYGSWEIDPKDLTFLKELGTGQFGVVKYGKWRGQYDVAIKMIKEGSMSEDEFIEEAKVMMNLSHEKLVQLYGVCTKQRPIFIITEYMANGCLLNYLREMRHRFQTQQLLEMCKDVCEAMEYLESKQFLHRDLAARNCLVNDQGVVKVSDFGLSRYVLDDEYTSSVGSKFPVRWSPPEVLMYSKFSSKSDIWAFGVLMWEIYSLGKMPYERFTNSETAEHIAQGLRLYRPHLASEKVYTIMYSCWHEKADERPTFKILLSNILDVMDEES

[2] = target: EGFR (Homo sapiens, UniProt P00533); experiment: Biochemical kinase selectivity: IC50 determination of EGFR; conditions: for IC50: TR-FRET, 20 μM ATP; for Fold of EGFR/Btk: ratio of IC50 values
Sequence of EGFR (P00533 25-1210): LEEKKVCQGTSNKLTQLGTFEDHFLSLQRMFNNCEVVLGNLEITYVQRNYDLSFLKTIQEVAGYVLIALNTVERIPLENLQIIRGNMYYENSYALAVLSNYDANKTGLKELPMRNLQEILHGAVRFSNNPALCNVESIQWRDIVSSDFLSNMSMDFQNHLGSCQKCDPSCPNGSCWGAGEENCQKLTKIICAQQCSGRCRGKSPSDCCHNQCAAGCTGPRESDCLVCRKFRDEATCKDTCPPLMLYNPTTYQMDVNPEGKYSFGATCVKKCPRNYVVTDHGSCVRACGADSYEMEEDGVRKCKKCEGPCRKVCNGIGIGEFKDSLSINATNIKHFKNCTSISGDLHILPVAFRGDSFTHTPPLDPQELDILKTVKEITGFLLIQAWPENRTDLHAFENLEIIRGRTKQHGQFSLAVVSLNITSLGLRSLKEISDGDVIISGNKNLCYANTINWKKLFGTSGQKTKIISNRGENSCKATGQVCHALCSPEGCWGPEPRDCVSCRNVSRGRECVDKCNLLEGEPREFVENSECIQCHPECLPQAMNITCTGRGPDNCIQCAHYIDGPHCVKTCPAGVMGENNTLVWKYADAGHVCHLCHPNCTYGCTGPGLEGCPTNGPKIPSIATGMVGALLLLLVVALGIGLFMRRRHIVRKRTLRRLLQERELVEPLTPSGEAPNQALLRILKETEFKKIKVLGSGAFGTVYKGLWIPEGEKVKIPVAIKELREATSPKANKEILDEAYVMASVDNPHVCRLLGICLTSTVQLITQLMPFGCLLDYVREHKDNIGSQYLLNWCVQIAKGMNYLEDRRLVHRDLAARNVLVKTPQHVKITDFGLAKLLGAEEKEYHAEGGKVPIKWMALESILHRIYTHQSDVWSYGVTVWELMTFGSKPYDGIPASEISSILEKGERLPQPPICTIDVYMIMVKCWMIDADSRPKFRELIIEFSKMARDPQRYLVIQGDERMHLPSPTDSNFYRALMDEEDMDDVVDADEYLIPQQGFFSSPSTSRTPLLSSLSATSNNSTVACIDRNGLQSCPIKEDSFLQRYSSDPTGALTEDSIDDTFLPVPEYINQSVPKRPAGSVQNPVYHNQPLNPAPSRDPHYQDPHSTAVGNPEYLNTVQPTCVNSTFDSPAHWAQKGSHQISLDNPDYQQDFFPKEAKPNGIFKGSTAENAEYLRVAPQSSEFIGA

[3] = target: T2, Tec (Homo sapiens, UniProt P42680); experiment: Biochemical kinase selectivity: IC50 determination of Tec; conditions: for IC50: TR-FRET, 280 μM ATP; for Fold of Tec/Btk: ratio of IC50 values
T2 sequence (P42680 1-631): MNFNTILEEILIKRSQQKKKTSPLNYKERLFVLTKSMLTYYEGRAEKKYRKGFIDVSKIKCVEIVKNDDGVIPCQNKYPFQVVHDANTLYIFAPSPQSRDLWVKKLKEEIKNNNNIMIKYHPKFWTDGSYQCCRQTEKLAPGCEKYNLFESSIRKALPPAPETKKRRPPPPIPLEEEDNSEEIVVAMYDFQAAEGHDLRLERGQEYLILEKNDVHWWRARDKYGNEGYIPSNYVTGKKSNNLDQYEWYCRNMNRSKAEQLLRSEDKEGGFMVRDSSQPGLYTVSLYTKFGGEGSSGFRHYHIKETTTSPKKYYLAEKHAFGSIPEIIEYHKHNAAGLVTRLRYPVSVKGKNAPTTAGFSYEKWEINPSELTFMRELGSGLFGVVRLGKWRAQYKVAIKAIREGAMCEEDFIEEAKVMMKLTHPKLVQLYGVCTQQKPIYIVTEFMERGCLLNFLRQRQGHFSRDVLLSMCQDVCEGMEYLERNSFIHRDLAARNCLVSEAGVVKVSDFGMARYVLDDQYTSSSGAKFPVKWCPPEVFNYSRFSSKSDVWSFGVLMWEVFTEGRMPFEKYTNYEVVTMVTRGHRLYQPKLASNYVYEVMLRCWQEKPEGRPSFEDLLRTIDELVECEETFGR

[4] = target: T3, Btk kinase (aa2-659, Carna Biosciences) (Homo sapiens, UniProt Q06187); experiment: Btk kinase enzymatic assay (TR-FRET); type: biochemical; conditions: for IC50: TR-FRET, 30 μM ATP, compound incubated with kinase 60 minutes
T3 construct: purchased Carna Biosciences
T3 sequence (Q06187 2-659): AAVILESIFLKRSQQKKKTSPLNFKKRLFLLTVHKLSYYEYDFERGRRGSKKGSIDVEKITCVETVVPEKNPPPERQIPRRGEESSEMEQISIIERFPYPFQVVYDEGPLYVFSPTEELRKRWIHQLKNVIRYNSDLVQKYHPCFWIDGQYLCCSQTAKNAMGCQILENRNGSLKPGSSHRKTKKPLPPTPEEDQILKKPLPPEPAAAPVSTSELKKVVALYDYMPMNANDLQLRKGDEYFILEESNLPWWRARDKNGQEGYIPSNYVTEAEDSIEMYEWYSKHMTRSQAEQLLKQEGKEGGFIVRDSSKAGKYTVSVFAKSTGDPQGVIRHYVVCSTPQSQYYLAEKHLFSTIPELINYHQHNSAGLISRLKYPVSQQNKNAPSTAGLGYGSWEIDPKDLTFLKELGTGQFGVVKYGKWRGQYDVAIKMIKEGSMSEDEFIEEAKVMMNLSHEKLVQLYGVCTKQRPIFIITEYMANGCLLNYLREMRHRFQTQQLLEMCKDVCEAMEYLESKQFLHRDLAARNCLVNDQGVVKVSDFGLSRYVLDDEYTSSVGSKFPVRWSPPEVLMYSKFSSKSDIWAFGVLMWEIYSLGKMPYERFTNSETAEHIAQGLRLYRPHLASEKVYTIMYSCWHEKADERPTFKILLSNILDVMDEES

IC50 [1] [nM]	IC50 [2] [nM]	IC50 [3] [nM]	Fold of EGFR/Btk [2] [fold]	Fold of Tec/Btk [3] [fold]	affinity / inhibitory activity for Btk (in words) [4]	IC50 [4] [nM]	Structure (SMILES)	selectivity of Btk over Tec (in words) [3]
14.8	1380	130	–	–	–	0.93	C=CC(=O)N1CCC(C2CCNc3c(C(N)=O)c(-c4cc(OC)c(I)c(OC)c4)nn32)CC1 (centres unmarked) [Example A8, 7-(1-acryloylpiperidin-4-yl)-2-(4-iodo-3,5-dimethoxyphenyl)-4,5, tetrahydropyrazolo[1,5-a]pyrimidine-3-carboxamide]	–
37.3	> 10000	289	–	61	–	4.7	C=CC(=O)N1CCC(C2CCNc3c(C(N)=O)c(-c4cc(OC)c(C)c(OCC)c4)nn32)CC1 (centres unmarked) [Example A12, 7-(1-acryloylpiperidin-4-yl)-2-(3-ethoxy-5-methoxy-4-methylphenyl)-4,5,6,7-tetrahydropyrazolo[1,5-a]pyrimidine-3-carboxamide]	–
42.9	9390	499	3479	185	high affinity for Btk	2.7	C=CC(=O)N1CCC(C2CCNc3c(C(N)=O)c(-c4cc(OC)c(C5CC5)c(OCC)c4)nn32)CC1 (centres unmarked) [Example A33, 7-(1-acryloylpiperidin-4-yl)-2-(4-cyclopropyl-3-ethoxy-5-methoxyphenyl)-4,5,6,7-tetrahydropyrazolo[1,5-a]pyrimidine-3-carboxamide]	–
50.5	2570	137	2339	125	high affinity for Btk	1.1	C=CC(=O)N1CCC(C2CCNc3c(C(N)=O)c(-c4cc(Cl)c(C5CC5)c(OC)c4)nn32)CC1 (centres unmarked) [Example A36, 7-(1-acryloylpiperidin-4-yl)-2-(3-chloro-4-cyclopropyl-5-methoxyphenyl)-4,5,6,7-tetrahydropyrazolo[1,5-a]pyrimidine-3-carboxamide]	–
–	6080	102	894	15	–	6.8	C=CC(=O)N1CCC(C2CCNc3c(C(N)=O)c(-c4cc(OC)c(C5CCCCC5)c(OC)c4)nn32)CC1 (centres unmarked) [Example A39, 7-(1-acryloylpiperidin-4-yl)-2-(4-cyclohexyl-3,5-dimethoxyphenyl)-4,5,6,7-tetrahydropyrazolo[1,5-a]pyrimidine-3-carboxamide]	–
–	> 10000	362	–	82	–	4.4	C=CC(=O)N1CCC(C2CCNc3c(C(N)=O)c(-c4cc(OC)c(C5CC5)c(OC(C)C)c4)nn32)CC1 (centres unmarked) [Example A45, 7-(1-acryloylpiperidin-4-yl)-2-(4-cyclopropyl-3-isopropoxy-5-methoxyphenyl)-4,5,6,7-tetrahydropyrazolo[1,5-a]pyrimidine-3-carboxamide]	–

Continued, compound first:

Structure (SMILES)	IC50 [1] [nM]	IC50 [2] [nM]	IC50 [3] [nM]	Fold of EGFR/Btk [2] [fold]	Fold of Tec/Btk [3] [fold]	affinity / inhibitory activity for Btk (in words) [4]	IC50 [4] [nM]	selectivity of Btk over Tec (in words) [3]
C=CC(=O)Nc1ccccc1C1CCNc2c(C(N)=O)c(-c3cc(Cl)c(OC)c(Cl)c3)nn21 (centres unmarked) [169^#]	28.2	0.54	37	–	–	–	–	–
C=CC(=O)Nc1ccccc1C1CCNc2c(C(N)=O)c(-c3cc(F)c(F)c(Cl)c3)nn21 (centres unmarked) [Example 158, reference compound]	–	0.49	56	0.2	19	–	–	–
C=CC(=O)N1CCC(C2CCNc3c(C(N)=O)c(-c4ccc(C)c(OC)c4)nn32)CC1 (centres unmarked) [Example 174, reference compound]	–	281	64	58.5	13	low affinity for Btk	–	almost no selectivity against Tec
C=CC(=O)N1CCC(C2CCNc3c(C(N)=O)c(-c4cc(Cl)c(C)c(Cl)c4)nn32)CC1 (centres unmarked) [Example A7, 7-(1-acryloylpiperidin-4-yl)-2-(3,5-dichloro-4-methylphenyl)-4,5,6,7-tetrahydropyrazolo[1,5-a]pyrimidine-3-carboxamide]	148	1190	254	289	62	–	4.1	–
C=CC(=O)N1CCC(C2CCNc3c(C(N)=O)c(-c4cc(Br)c(C)c(Br)c4)nn32)CC1 (centres unmarked) [Example A16, 7-(1-acryloylpiperidin-4-yl)-2-(3,5-dibromo-4-methylphenyl)-4,5,6,7-tetrahydropyrazolo[1,5-a]pyrimidine-3-carboxamide]	–	2370	556	333	78	–	7.1	–
C=CC(=O)N1CCC(C2CCNc3c(C(N)=O)c(-c4cc(OC)c(-c5ccco5)c(OC)c4)nn32)CC1 (centres unmarked) [Example A19, 7-(1-acryloylpiperidin-4-yl)-2-(4-(furan-2-yl)-3,5-dimethoxyphenyl)-4,5,6,7-tetrahydropyrazolo[1,5-a]pyrimidine-3-carboxamide]	–	> 10000	455	–	63.2	–	7.2	–
C=CC(=O)N1CCC(C2CCNc3c(C(N)=O)c(-c4cc(C)c(Br)c(C)c4)nn32)CC1 (centres unmarked) [Example A20, 7-(1-acryloylpiperidin-4-yl)-2-(4-bromo-3,5-dimethylphenyl)-4,5,6,7-tetrahydropyrazolo[1,5-a]pyrimidine-3-carboxamide]	143	496	352	150	107	high affinity for Btk	3.3	–
C=CC(=O)N1CCC(C2CCNc3c(C(N)=O)c(-c4cc(C)c(C)c(OC)c4)nn32)CC1 (centres unmarked) [Example A34, 7-(1-acryloylpiperidin-4-yl)-2-(3-methoxy-4,5-dimethylphenyl)-4,5,6,7-tetrahydropyrazolo[1,5-a]pyrimidine-3-carboxamide]	41.8	405	207	225	115	high affinity for Btk	1.8	–
C=CC(=O)N1CCC(C2CCNc3c(C(N)=O)c(-c4cc(Cl)c(C)c(OC)c4)nn32)CC1 (centres unmarked) [Example A35, 7-(1-acryloylpiperidin-4-yl)-2-(3-chloro-5-methoxy-4-methylphenyl)-4,5,6,7-tetrahydropyrazolo[1,5-a]pyrimidine-3-carboxamide]	65	1150	174	500	75.6	–	2.3	–
C=CC(=O)N1CCC(C2CCNc3c(C(N)=O)c(-c4cc(OC)c(C(F)(F)F)c(OC)c4)nn32)CC1 (centres unmarked) [Example A38, 7-(1-acryloylpiperidin-4-yl)-2-(3,5-dimethoxy-4-(trifluoromethyl)phenyl)-4,5,6,7-tetrahydropyrazolo[1,5-a]pyrimidine-3-carboxamide]	36.7	2250	264	803	94	–	2.8	–
C=CC(=O)N1CCC(C2CCNc3c(C(N)=O)c(-c4cc(OC)c(CCc5ccccc5)c(OC)c4)nn32)CC1 (centres unmarked) [Example A42, 7-(1-acryloylpiperidin-4-yl)-2-(3,5-dimethoxy-4-phenethylphenyl)-4,5,6,7-tetrahydropyrazolo[1,5-a]pyrimidine-3-carboxamide]	–	2000	53	668	18	–	3	–
C=CC(=O)N1CCC(C2CCNc3c(C(N)=O)c(-c4cc(OC)c(C(=C)c5ccccc5)c(OC)c4)nn32)CC1 (centres unmarked) [Example A43, 7-(1-acryloylpiperidin-4-yl)-2-(3,5-dimethoxy-4-(1-phenylvinyl)phenyl)-4,5,6,7-tetrahydropyrazolo[1,5-a]pyrimidine-3-carboxamide]	–	6180	39	909	5.7	–	6.8	–
C=CC(=O)N1CCC(C2CCNc3c(C(N)=O)c(-c4cc(OC)c(C(C)c5ccccc5)c(OC)c4)nn32)CC1 (centres unmarked) [Example A44, 7-(1-acryloylpiperidin-4-yl)-2-(3,5-dimethoxy-4-(1-phenylethyl)phenyl)-4,5,6,7-tetrahydropyrazolo[1,5-a]pyrimidine-3-carboxamide]	–	3170	35	647	7.1	–	4.9	–
